The subject of one experiment is OCI-LY10 cells. Nature of the experiment: OCI-LY-10 CTG cell viability assay (EC50). The format is cell-based. Conditions: Homo sapiens, 96 h, CellTiter-Glo cell viability, 4 days incubation, top concentration 10 μM, read-out: OCI-LY10 IRAK4 EC50. In short, it runs like this:
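OCI-LY10 cells were exposed to a 9-dose, 1:3 series (top 10 μM, 0.2% DMSO) for 4 days at 37 °C. Viability was measured by CellTiter-Glo luminescence, and EC50 came from a three-parameter logistic fit.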

Another experiment concerns the target T1, IRAK4 (Homo sapiens, UniProt Q9NWZ3).
T1 sequence (Q9NWZ3 1-460): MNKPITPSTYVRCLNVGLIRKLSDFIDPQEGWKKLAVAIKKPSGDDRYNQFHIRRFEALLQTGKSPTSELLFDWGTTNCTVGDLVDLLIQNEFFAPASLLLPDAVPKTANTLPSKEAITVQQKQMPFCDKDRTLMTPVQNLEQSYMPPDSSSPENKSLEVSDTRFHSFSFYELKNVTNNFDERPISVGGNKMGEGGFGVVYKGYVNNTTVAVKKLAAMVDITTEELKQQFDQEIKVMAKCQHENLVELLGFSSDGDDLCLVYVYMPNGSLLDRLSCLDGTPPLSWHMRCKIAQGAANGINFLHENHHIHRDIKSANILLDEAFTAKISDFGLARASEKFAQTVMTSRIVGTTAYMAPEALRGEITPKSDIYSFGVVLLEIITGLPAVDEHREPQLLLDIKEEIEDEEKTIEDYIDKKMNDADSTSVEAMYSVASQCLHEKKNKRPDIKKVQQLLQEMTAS
Nature of the experiment: OCI-LY-10 MSD assay for IRAK4 DC50. The class given is cell-based. On the set-up: endogenous in cells; host or cells: OCI-LY10. Conditions: OCI-LY10 cells, 4 hr incubation, concentration required to degrade 50% of protein. In short, it runs like this:
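IRAK4 level was quantified by MSD electrochemiluminescence (anti-IRAK4 capture antibody, rabbit anti-IRAK4 detection antibody) in RIPA lysates of OCI-Ly10 cells. Cells had been treated with compound for 4 hr (8-point, 3-fold serial dilution). Remaining protein versus concentration was fitted to a sigmoidal curve to give DC50.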

A value given as a limit tells only on which side of the number the result lay.

As for `Cn1c(=O)n([C@H]2CCC(=O)NC2=O)c2ccc(CCCCOCCCCNCc3ccc(-n4cc(NC(=O)c5coc(-c6ccnc(NCC7CC7)c6)n5)c(C(F)F)n4)cc3)cc21` (single isomer, unassigned) [I-699], the EC50 in the experiment on OCI-LY10 cells is less than 50 nM. The compound also yielded a DC50 on IRAK4 of 100 to 500 nM.
Consider `Cn1c(=O)n([C@@H]2CCC(=O)NC2=O)c2cccc(CCCOCCOCCNCc3ccc(-n4cc(NC(=O)c5coc(-c6ccnc(NCC(F)(F)F)c6)n5)c(C(N)=O)n4)cc3)c21` [I-689], for which the EC50 with OCI-LY10 cells was 500 to 1000 nM. This compound also yielded a DC50 at IRAK4 of less than 50 nM.
`Cn1c(=O)n(C2CCC(=O)NC2=O)c2cccc(CCCOCCCNCc3ccc(-n4cc(NC(=O)c5coc(-c6ccnc(NCC(F)(F)F)c6)n5)c(C(F)F)n4)cc3)c21` (centres unmarked) [I-535]: the EC50 in the experiment on OCI-LY10 cells was greater than 1000 nM. In addition, at IRAK4, the DC50 is less than 50 nM.
On the same counts, the results for `O=C1CCC(n2c(=O)oc3c(CCCOCCOCCNCc4ccc(-n5cc(NC(=O)c6coc(-c7ccnc(NCC8CC8)c7)n6)c(C(F)F)n5)cc4)cccc32)C(=O)N1` (centres unmarked) [I-551] are less than 50 nM and less than 50 nM.
The like results for `CN[C@@H](C)C(=O)N[C@H](C(=O)N1Cc2cc(OCCOCCOCCOCCOCCOCCNCc3ccc(-n4cc(NC(=O)c5coc(-c6ccnc(NCC7CC7)c6)n5)c(C(F)F)n4)cc3)ccc2C[C@H]1C(=O)N[C@@H]1CCCc2ccccc21)C(C)(C)C` [I-680, 2-[2-(Cyclopropylmethylamino)-4-pyridyl]-N-[3-(difluoromethyl)-1-[4-[[2-[2-[2-[2-[2-[2-[[(3S)-2-[(2S)-3,3-dimethyl-2-[[(2S)-2-(methylamino)propanoyl]amino]butanoyl]-3-[[(1R)-tetralin-1-yl]carbamoyl]-3,4-dihydro-1H-isoquinolin-7-yl]oxy]ethoxy]ethoxy]ethoxy]ethoxy]ethoxy]ethylamino]methyl]-phenyl]pyrazol-4-yl]oxazole-4-carboxamide] were, in that order, greater than 1000 nM and greater than 1000 nM.
For the compound `Cn1c(=O)n(C2CCC(=O)NC2=O)c2ccc(CCCOCCOCCNC(=O)c3ccc(-n4cc(NC(=O)c5coc(-c6ccnc(NCC7CC7)c6)n5)c(C(F)F)n4)cc3F)cc21` (centres unmarked) [I-470], the EC50 in the experiment on OCI-LY10 cells was less than 50 nM. At IRAK4, this compound came in with a DC50 of less than 50 nM.
On to `O=C1CCC(N2C[C@H](c3cccc(C#CCN4CCO[C@@H](CNC(=O)c5ccc(-n6cc(NC(=O)c7coc(-c8ccnc(NCC9CC9)c8)n7)c(C(F)F)n6)cc5)C4)c3)OC2=O)C(=O)N1` (some centres unmarked) [I-508], for which, in the experiment with OCI-LY10 cells, the EC50 lay in the range of 50 to 100 nM. Also, the DC50 on IRAK4 was less than 50 nM.
Turning to `Cn1c(=O)n(C2CCC(=O)NC2=O)c2cccc(CCCOCCCNC(=O)c3ccc(-n4cc(NC(=O)c5coc(-c6ccnc(NCC7CC7)c6)n5)c(C(F)F)n4)cc3)c21` (centres unmarked) [I-460], in the experiment on OCI-LY10 cells, the EC50 is less than 50 nM. At IRAK4, the DC50 was less than 50 nM.
In the case of `Cn1c(=O)n(C2CCC(=O)NC2=O)c2ccc(CN3CCN(CCO[C@H]4C[C@H](NC(=O)c5ccc(-n6cc(NC(=O)c7coc(-c8ccnc(NCC9CC9)c8)n7)c(C(F)F)n6)cc5)C4)CC3)cc21` (some centres unmarked) [I-506], the EC50 in the experiment on OCI-LY10 cells is less than 50 nM. Further, the DC50 at IRAK4 was less than 50 nM.
For the compound `Cn1c(=O)n(C2CCC(=O)NC2=O)c2ccc(CCCOCCCNCc3ccc(-n4cc(NC(=O)c5coc(-c6ccnc(NCC(F)(F)F)c6)n5)c(C(F)F)n4)cc3)cc21` (centres unmarked) [I-534], the EC50 in the experiment with OCI-LY10 cells was greater than 1000 nM. Besides, the half-maximal degradation concentration (DC50) on IRAK4 was less than 50 nM.
On to `Cn1c(=O)n(C2CCC(=O)NC2=O)c2ccc(CCCOCCCNC(=O)c3ccc(-n4cc(NC(=O)c5coc(-c6ccnc(NCC7CC7)c6)n5)c(C(F)F)n4)cc3)cc21` (centres unmarked) [I-459], for which, in the experiment on OCI-LY10 cells, the EC50 was less than 50 nM. This compound registered a DC50 at IRAK4 of less than 50 nM.
Consider `O=C1CCC(N2Cc3cc(CNC(=O)OCCNCc4ccc(-n5cc(NC(=O)c6coc(-c7ccnc(NCC8CC8)c7)n6)c(C(F)F)n5)cc4)ccc3C2=O)C(=O)N1` (centres unmarked) [I-558], for which the EC50 in the experiment on OCI-LY10 cells is less than 50 nM. The compound also came in with a DC50 on IRAK4 of less than 50 nM.
On to `C=C1N(C)c2c(CCCOCCCN(C)C(=O)c3ccc(-n4cc(NC(=O)c5coc(-c6ccnc(NCC7CC7)c6)n5)c(C(F)F)n4)cc3)cccc2N1C1CCC(=O)NC1=O` (centres unmarked) [I-473], for which, in the experiment on OCI-LY10 cells, the EC50 was 50 to 100 nM. Further, the DC50 at IRAK4 was less than 50 nM.
On the same counts, the results for `Cn1c(=O)n(C2CCC(=O)NC2=O)c2ccc(N3CCN(CCOCCNCc4ccc(-n5cc(NC(=O)c6coc(-c7ccnc(NCC(F)(F)F)c7)n6)c(C(N)=O)n5)cc4)CC3)cc21` (centres unmarked) [I-564] are greater than 1000 nM and 100 to 500 nM.
Consider `CN(C[C@H]1CN(CCCc2cccc3c2n(C)c(=O)n3C2CCC(=O)NC2=O)CCO1)C(=O)c1ccc(-n2cc(NC(=O)c3coc(-c4ccnc(NCC5CC5)c4)n3)c(C(F)F)n2)cc1` (some centres unmarked) [I-513], for which the EC50 with OCI-LY10 cells was less than 50 nM. This compound gave a DC50 on IRAK4 of less than 50 nM.
Take `Cn1c(=O)n(C2CCC(=O)NC2=O)c2cccc(CCCNCC3COC4C(CNCc5ccc(-n6cc(NC(=O)c7coc(-c8ccnc(NCC(F)(F)F)c8)n7)c(C(F)F)n6)cc5)COC34)c21` (centres unmarked) [I-536]: in the experiment on OCI-LY10 cells, the EC50 is less than 50 nM. Besides, the DC50 on IRAK4 is less than 50 nM.
As for `O=C1CCC(n2c(=O)oc3cc(CCCOCCOCCNC(=O)c4ccc(-n5cc(NC(=O)c6coc(-c7ccnc(NCC8CC8)c7)n6)c(C(F)F)n5)cc4)ccc32)C(=O)N1` (centres unmarked) [I-462], in the experiment with OCI-LY10 cells, the EC50 was less than 50 nM. This compound yielded a DC50 on IRAK4 of less than 50 nM.
`O=C1CCC(n2c(=O)oc3c(CCCN4CCO[C@H](CNCc5ccc(-n6cc(NC(=O)c7coc(-c8ccnc(NCC9CC9)c8)n7)c(C(F)F)n6)cc5)C4)cccc32)C(=O)N1` (some centres unmarked) [I-590]: the concentration giving a half-maximal response (EC50) in the experiment with OCI-LY10 cells was less than 50 nM. The DC50 at IRAK4 was less than 50 nM.
In the case of `Cn1c(=O)n(C2CCC(=O)NC2=O)c2ccc(CCCN3CCO[C@@H](CNCc4ccc(-n5cc(NC(=O)c6coc(-c7ccnc(NCC8CC8)c7)n6)c(C(F)F)n5)cc4)C3)cc21` (some centres unmarked) [I-574], the EC50 in the experiment on OCI-LY10 cells is less than 50 nM. For the same compound, the DC50 at IRAK4 was less than 50 nM.
For `CN[C@@H](C)C(=O)N[C@H](C(=O)N1Cc2cc(OCCOCCOCCOCCOCCNC(=O)c3ccc(-n4cc(NC(=O)c5coc(-c6ccnc(NCC7CC7)c6)n5)c(C(F)F)n4)cc3)ccc2C[C@H]1C(=O)N[C@@H]1CCCc2ccccc21)C(C)(C)C` [I-519, 2-[2-(Cyclopropylmethylamino)-4-pyridyl]-N-[3-(difluoromethyl)-1-[4-[2-[2-[2-[2-[2-[[(3S)-2-[(2S)-3,3-dimethyl-2-[[(2S)-2-(methylamino)propanoyl]amino]butanoyl]-3-[[(1R)-tetralin-1-yl]carbamoyl]-3,4-dihydro-1H-isoquinolin-7-yl]oxy]ethoxy]ethoxy]ethoxy]ethoxy]ethylcarbamoyl]phenyl]pyrazol-4-yl]oxazole-4-carboxamide], in the experiment on OCI-LY10 cells, the EC50 is 500 to 1000 nM. At IRAK4, this compound yielded a DC50 of 500 to 1000 nM.
On to `O=C1CCC(n2c(=O)oc3c(CCCOCCCNC(=O)c4ccc(-n5cc(NC(=O)c6coc(-c7ccnc(NCC8CC8)c7)n6)c(C(F)F)n5)cc4)cccc32)C(=O)N1` (centres unmarked) [I-475], for which the 50% effective concentration (EC50) in the experiment with OCI-LY10 cells is less than 50 nM. Further, the DC50 at IRAK4 was less than 50 nM.
Consider `CN(C[C@@H]1CN(CCCc2cccc3c2n(C)c(=O)n3C2CCC(=O)NC2=O)CCO1)C(=O)c1ccc(-n2cc(NC(=O)c3coc(-c4ccnc(NCC5CC5)c4)n3)c(C(F)F)n2)cc1` (some centres unmarked) [I-514], for which, in the experiment on OCI-LY10 cells, the EC50 was less than 50 nM. At IRAK4, the DC50 was less than 50 nM.
Consider `CN1CCN(C(=O)c2nn(-c3ccc(CNCCCCOCCCCc4ccc5c(c4)n(C)c(=O)n5C4CCC(=O)NC4=O)cc3)cc2NC(=O)c2coc(-c3ccnc(NCC(F)(F)F)c3)n2)CC1` (centres unmarked) [I-559], for which, in the experiment on OCI-LY10 cells, the EC50 lay within 500 to 1000 nM. At IRAK4, the DC50 is greater than 1000 nM.
The like results for `Cn1c(=O)n([C@H]2CCC(=O)NC2=O)c2cccc(CCCOCCOCCNCc3ccc(-n4cc(NC(=O)c5coc(-c6ccnc(NCC(F)(F)F)c6)n5)c(C(N)=O)n4)cc3)c21` [I-690, N-[3-carbamoyl-1-[4-[[2-[2-[3-[(1S)-1-(2,6-dioxo-3-piperidyl)-3-methyl-2-oxo-benzimidazol-4-yl]propoxy]ethoxy]ethylamino]methyl]phenyl]pyrazol-4-yl]-2-[2-(2,2,2-trifluoroethylamino)-4-pyridyl]oxazole-4-carboxamide] were, in that order, greater than 1000 nM and less than 50 nM.
For the compound `CN(CCCOCCCc1ccc2c(c1)n(C)c(=O)n2C1CCC(=O)NC1=O)C(=O)c1ccc(-n2cc(NC(=O)c3coc(-c4ccnc(NCC5CC5)c4)n3)c(C(F)F)n2)cc1` (centres unmarked) [I-477], in the experiment with OCI-LY10 cells, the EC50 is less than 50 nM. This compound also yielded a DC50 at IRAK4 of less than 50 nM.
With `Cn1c(=O)n(C2CCC(=O)NC2=O)c2ccc(CCCOCCOCCNC(=O)c3ccc(-n4cc(NC(=O)c5coc(-c6ccnc(NCC7CC7)c6)n5)c(C(F)F)n4)cn3)cc21` (centres unmarked) [I-461], the EC50 with OCI-LY10 cells was less than 50 nM. The compound further gave a DC50 on IRAK4 of less than 50 nM.
`CC(C)(CCOCCCc1cccc2c1oc(=O)n2C1CCC(=O)NC1=O)NC(=O)c1ccc(-n2cc(NC(=O)c3coc(-c4ccnc(NCC5CC5)c4)n3)c(C(F)F)n2)cc1` (centres unmarked) [I-478]: the EC50 in the experiment on OCI-LY10 cells lay in the range of 100 to 500 nM. The same compound returned a DC50 on IRAK4 of 50 to 100 nM.
The like results for `Cn1cc(NC(=O)c2coc(-c3ccnc(NCC(F)(F)F)c3)n2)c(CNCCOCCOCCOCCOCCOCCNc2cccc3c2C(=O)N(C2CCC(=O)NC2=O)C3=O)n1` (centres unmarked) [I-522] were, in that order, greater than 1000 nM and greater than 1000 nM.

A word on the EC50: it is the concentration at which the effect is half-maximal. One may read the DC50 as the midpoint of the concentration-degradation curve. High values mean degradation only at high concentration, low ones degradation at low concentration.

These data come from patent US10874743B2, “IRAK degraders and uses thereof” (Kymera Therapeutics, Inc., priority 2017, dated 2020).
